Measurements from patent publication US10844013B2, “Phenyl amino piperidine mTORC inhibitors and uses thereof” (Navitor Pharmaceuticals, Inc., priority 2016, dated 2020).
Where a name gives a salt, the structure may show the parent alone. Read-outs that look alike come from different tables or passages of the source.

How the values were obtained:
Format in all cases: cell-based
[1] = tested on: pS6K1 (p-p70 S6 Kinase (Thr389)) in MCF-7 cells; test: AlphaLISA Ultra pS6K1 assay; details: 2 hours compound incubation
In short: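 MCF-7 cells seeded 20–24 h, medium refreshed 2 h, then treated 2 h with compound (0.5% DMSO final). Lysates probed for Thr389-phosphorylated p70 S6K by AlphaLISA Ultra, 2 h acceptor then 2 h donor bead incubation, read on a multimode reader.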

[2] = tested on: pAKT (p-Akt 1/2/3 (Ser473)) in MCF-7 cells; test: AlphaLISA Ultra pAKT assay
In short: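 MCF-7 cells seeded 20-24 h, medium refreshed for 2 h, then treated with compounds for 2 h at 0.5% final DMSO. Lysates frozen at −80 °C, then pAKT detected by AlphaLISA with acceptor and donor beads, 2 h each.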

[3] = tested on: MCF-7 cells; test: Radioactive glucose uptake in MCF-7 cells; details: Homo sapiens, MCF7, 3H-2DG uptake
Procedure: Example 157: Radioactive Glucose Uptake in MCF-7 Cells
Assay Protocol • 1. Seed approximately 12,000 MCF-7 cells cultured without insulin per well in 96-well plates (BIOCOAT, #356690) and let the cells sit in hood for 30 min. (Cell culture medium: DMEM+10% FBS). • 2. Put the cell culture plates in TC incubator (5% CO2, 37° C.) and incubate overnight. • 3. Take out the cell plates and wash with prewarmed KRH buffer (37° C.) three times using BioTek plate washer. (KRH buffer preparation: 136 mM NaCl, 4.7 mM KCl, 1.25 mM MgCl2, 1.2 mM CaCl2), 20 mM HEPES, 0.1 mg/ml sodium pyruvate, 0.1% BSA, pH 7.4). • 4. Compound preparation and treatment: • a) Add 12 ul compound stock in 100% DMSO to the first column of Echo LDV plate • b) Serially dilute the compound solution in 100% DMSO (4 uL+8 uL DMSO) using Bravo for 9 doses • c) Dispense 350 nL compounds using Echo to the working plate. • d) i) Without compound preincubation condition, dispense 116 uL KRH buffer containing tritiated 2-deoxy-D-glucose (3H-2DG) and 2-deoxy-D-glucose (2DG) to the working plate and mix. • ii. With compound preincubation condition, dispense 110 uL KRH buffer only to the working plates and mix • e) Keep the compound working plate at 37° C. incubator until use • 5. Discard the KRH buffer (cells were kept in KRH buffer for 10-15 min before 2-DG addition) and transfer 100 uL compound working solution out to the cell culture plate using Bravo. Incubate for 20 mins at 37° C. (2DG final at 0.2 mM, 3H-2DG at 10 uCi/mL). • 6. Add prewarmed 50 uL KRH buffer (37° C.) containing 60 mM cold 2DG to the wells to stop the 2DG uptake using Multidrop combi • 7. Wash the cells with prewarmed PBS three times using BioTek plate washer • 8. Add 50 uL lysis buffer (0.1 M NaOH) into the assay plate to lyse the cells using Bravo and shake at 800 rpm for 30 min. • 9. Mix and transfer 20 uL lysate to a new white plate (Corning, #3610) and add 200 uL MicroScint-20 using Bravo • 10. Shake the plate at 1000 rpm for 30 min and count in a MicroBeta plate reader.

[4] = Homo sapiens, MCF7, 2 hours compound incubation

IC50 ([1]; Homo sapiens, MCF7, 2 h) | IC50 [2, 4] | IC50 [3] | IC50 ([1]; read-out: pS6K1 in MCF7: IC50) | IC50 ([2]; 2 hours compound incubation, read-out: pAKT in MCF7: IC50) | SMILES
10 to 1000 nM | > 10000 nM | 10 to 1000 nM | – | – | Cc1cc(C)c(C(=O)N2CCN(c3ccccn3)C(CO)C2)cc1NC1CCN(c2ccccc2C#N)CC1 (single isomer, unassigned) [I-48, 2-[4-({5-[(3R or 3S)-3-(hydroxymethyl)-4-(pyridin-2-yl)piperazine-1-carbonyl]-2,4-dimethylphenyl}amino)piperidin-1-yl]benzonitrile]
– | > 10000 nM | 10 to 1000 nM | 10 to 1000 nM | – | Cc1cc(C)c(C(=O)N2CCN(c3ccccc3S(C)(=N)=O)CC2)cc1NC1CCN(c2ccccc2C#N)CC1 (single isomer, unassigned) [I-49, 2-(4-{[5-(4-{2-[(S or R)-imino(methyl)oxo-λ^6-sulfanyl]phenyl}piperazine-1-carbonyl)-2,4-dimethylphenyl]amino}piperidin-1-yl)benzonitrile]
10 to 1000 nM | > 10000 nM | 10 to 1000 nM | – | – | Cc1cc(C)c(C(=O)N2CCN(c3ccccc3C#N)[C@H](CO)C2)cc1NC1CCN(c2ccccc2C#N)CC1 (single isomer, unassigned) [I-79, 2-[4-({5-[(3S or 3R)-4-(2-Cyanophenyl)-3-(hydroxymethyl)piperazine-1-carbonyl]-2,4-dimethylphenyl}amino)piperidin-1-yl]benzonitrile]
10 to 1000 nM | > 10000 nM | 10 to 1000 nM | – | – | Cc1cc(C)c(C(=O)N2CCN(c3cccc(F)c3[S@@](C)(=N)=O)CC2)cc1NC1CCN(c2ccccc2C#N)CC1 (single isomer, unassigned) [I-88]
– | – | 10 to 1000 nM | – | > 10000 nM | Cc1cc(C)c(C(=O)N2CCN(c3cccnc3[S@](C)(=N)=O)CC2)c(C)c1NC1CCN(c2ncccc2Cl)CC1 (stereo in doubt) [I-176, (3-(4-(3-((1-(3-chloropyridin-2-yl)piperidin-4-yl)amino)-2,4,6-trimethylbenzoyl)piperazin-1-yl)pyridin-2-yl)(imino)(methyl)-16-sulfanone Trifluoroacetate Salt]
10 to 1000 nM | > 10000 nM | 10 to 1000 nM | – | – | Cc1cc(C)c(N(CCO)C2CCN(c3ccccc3C#N)CC2)cc1C(=O)N1CCN(c2ccccc2S(N)(=O)=O)CC1 [I-1, 2-(4-(5-((1-(2-Cyanophenyl)piperidin-4-yl)(2-hydroxyethyl)amino)-2,4-dimethylbenzoyl)piperazin-1-yl)benzenesulfonamide]
10 to 1000 nM | > 10000 nM | 10 to 1000 nM | – | – | Cc1cc(C)c(C(=O)N2CCN(c3cccnc3S(N)(=O)=O)CC2)c(C)c1NC1CCN(c2ccccc2C#N)CC1 [I-2, 3-(4-(3-(1-(2-Cyanophenyl)piperidin-4-ylamino)-2,4,6-trimethylbenzoyl)piperazin-1-yl)pyridine-2-sulfonamide]
10 to 1000 nM | > 10000 nM | 10 to 1000 nM | – | – | Cc1cc(C)c(C(=O)N2CCN(c3cccnc3S(N)(=O)=O)CC2)cc1NC1CCN(c2ccccc2C#N)CC1 [I-3, 3-(4-(5-(1-(2-Cyanophenyl)piperidin-4-ylamino)-2,4-dimethylbenzoyl)piperazin-1-yl)pyridine-2-sulfonamide]
1000 to 3000 nM | > 10000 nM | > 10000 nM | – | – | Cc1cc(C)c(C(=O)N2CCN(c3cccc(S(N)(=O)=O)c3)CC2)cc1NC1CCN(c2ccccc2Cl)CC1 [I-4, 3-(4-(5-(1-(2-Chlorophenyl)piperidin-4-ylamino)-2,4-dimethylbenzoyl)piperazin-1-yl)benzenesulfonamide]
> 10000 nM | > 10000 nM | > 10000 nM | – | – | Cc1cc(C)c(C(=O)N2CCN[C@@H](CO)C2)cc1NC1CCN(c2ccccc2C#N)CC1 [I-6, (R)-2-(4-(5-(3-(Hydroxymethyl)piperazine-1-carbonyl)-2,4-dimethylphenylamino)piperidin-1-yl)benzonitrile]
> 10000 nM | > 10000 nM | > 10000 nM | – | – | Cc1nc(C)c(C(=O)N2CCN(c3ccccc3S(N)(=O)=O)CC2)cc1NC1CCN(c2ccccc2C#N)CC1 [I-12, 2-(4-(5-(1-(2-Cyanophenyl)piperidin-4-ylamino)-2,6-dimethylnicotinoyl)piperazin-1-yl)benzenesulfonamide]
10 to 1000 nM | > 10000 nM | 10 to 1000 nM | – | – | Cc1cc(C)c(C(=O)N2CCN(c3cccc(F)c3S(N)(=O)=O)CC2)c(C)c1NC1CCN(c2ccccc2C#N)CC1 [I-14, 2-(4-(3-(1-(2-Cyanophenyl)piperidin-4-ylamino)-2,4,6-trimethylbenzoyl)piperazin-1-yl)-6-fluorobenzenesulfonamide]
10 to 1000 nM | > 10000 nM | 10 to 1000 nM | – | – | Cc1cc(C)c(C(=O)N2CCN(c3ncccc3S(N)(=O)=O)CC2)c(C)c1NC1CCN(c2ccccc2C#N)CC1 [I-15, 2-(4-(3-(1-(2-Cyanophenyl)piperidin-4-ylamino)-2,4,6-trimethylbenzoyl)piperazin-1-yl)pyridine-3-sulfonamide]
3000 to 5000 nM | > 10000 nM | 3000 to 5000 nM | – | – | Cc1ccc(NC2CCN(c3ccccc3C#N)CC2)cc1C(=O)N1CCN(c2ccccc2S(N)(=O)=O)CC1 [I-22, 2-(4-(5-(1-(2-Cyanophenyl)piperidin-4-ylamino)-2-methylbenzoyl)piperazin-1-yl)benzenesulfonamide]
10 to 1000 nM | > 10000 nM | 10 to 1000 nM | – | – | Cc1cc(C)c(C(=O)N2CCN(c3ncccc3S(N)(=O)=O)CC2)nc1NC1CCN(c2ccccc2C#N)CC1 [I-25, 2-(4-(6-(1-(2-Cyanophenyl)piperidin-4-ylamino)-3,5-dimethylpicolinoyl)piperazin-1-yl)pyridine-3-sulfonamide]
10 to 1000 nM | > 10000 nM | 10 to 1000 nM | – | – | Cc1cc(C)c(C(=O)N2CCN(c3ccccc3S(N)(=O)=O)C[C@@H]2C)nc1NC1CCN(c2ccccc2C#N)CC1 [I-26, (S)-2-(4-(6-(1-(2-Cyanophenyl)piperidin-4-ylamino)-3,5-dimethylpicolinoyl)-3-methylpiperazin-1-yl)benzenesulfonamide]
10 to 1000 nM | > 10000 nM | 10 to 1000 nM | – | – | Cc1cc(C)c(C(=O)N2CCN(c3ccccc3S(N)(=O)=O)CC2)cc1NC1CCN(c2ccccc2C#N)CC1C (centres unmarked) [I-43, 2-(4-(5-(1-(2-Cyanophenyl)-3-methylpiperidin-4-ylamino)-2,4-dimethylbenzoyl)piperazin-1-yl)benzenesulfonamide]
10 to 1000 nM | > 10000 nM | 10 to 1000 nM | – | – | Cc1cc(C)c(C(=O)N2CCN(c3cncc4cn[nH]c34)CC2)cc1NC1CCN(c2ccccc2C#N)CC1 [I-44, 2-(4-(5-(4-(1H-Pyrazolo[4,3-c]pyridin-7-yl)piperazine-1-carbonyl)-2,4-dimethylphenylamino)piperidin-1-yl)benzonitrile]
10 to 1000 nM | > 10000 nM | 10 to 1000 nM | – | – | Cc1cc(C)c(C(=O)N2CCN(c3ccccn3)[C@H](C)C2)cc1NC1CCN(c2ccccc2C#N)CC1 [I-45, (R)-2-(4-(2,4-Dimethyl-5-(3-methyl-4-(pyridin-2-yl)piperazine-1-carbonyl)phenylamino)piperidin-1-yl) benzonitrile]
1000 to 3000 nM | > 10000 nM | 10 to 1000 nM | – | – | Cc1cc(C)c(C(=O)N2CCN(c3ncccc3S(N)(=O)=O)CC2)cc1NC1CCN(c2ccccc2C#N)CC1 [I-60]
10 to 1000 nM | > 10000 nM | 10 to 1000 nM | – | – | Cc1cc(C)c(C(=O)N2CCN(c3cccc4c3NC(=O)C4)CC2)cc1NC1CCN(c2ccccc2C#N)CC1 [I-61, 2-(4-(2,4-Dimethyl-5-(4-(2-oxoindolin-7-yl)piperazine-1-carbonyl)phenylamino)piperidin-1-yl)benzonitrile]
10 to 1000 nM | > 10000 nM | 10 to 1000 nM | – | – | Cc1cc(C)c(C(=O)N2CCN(c3cccc(F)c3)C(CO)C2)cc1NC1CCN(c2ccccc2C#N)CC1 (centres unmarked) [I-75, 2-[4-({5-[4-(3-Fluorophenyl)-3-(hydroxymethyl)piperazine-1-carbonyl]-2,4-dimethylphenyl}amino)piperidin-1-yl]benzonitrile]
